{"source": "patent US11413280B2", "about": "(The Board of Trustees of the Leland Stanford Junior …, priority 2017, dated 2022)", "key": {"miR27a": {"system": "miR27a", "assay": "Relative miR27a expression in PAECs (qPCR)", "assay_type": "cell-based, human", "settings": "15 μM Enzastaurin 24 hours"}, "[1]": {"system": "SUGEN5416/Hypoxia/Normoxia rats", "assay": "SUGEN5416/Hypoxia/Normoxia rat model of experimental PH", "assay_type": "in vivo", "protocol": "Experimental PAH was induced in male Sasco Sprague Dawley rats by subcutaneous injection of 20 mg/kg body weight SU5416. […] Echocardiography was performed to assess development of RV hypertrophy and Ejection Fraction. Right Ventricular (RV) Systolic Pressure was measured through right jugular vein catheterization and RV hypertrophy was assessed by the weight ratio of the RV to left ventricle+septum. Vessel loss and muscularization of lung vessels were visualized by MOVAT pentachrome stain. […] FIG. 4F, Representative MOVAT lung histology. Fhit homozygous (−/−) mice were obtained from Kay F. Huebner (Ohio State University). Bmpr2+/− mice were a gift from Marlene Rabinovitch (Stanford University). Adult wildtype C57BL/6 mice, Bmpr2+/− or Fhit−/− mice at 8-10 weeks of age were housed in chronic hypoxia (10% O2) for 3 weeks, followed by a recovery period of 4 weeks in normoxia (21% O2). […] Development of experimental PH was induced in adult Sprague Dawley rats (8 weeks old, 180-220 g) through a subcutaneous dose of the VEGFR-2 inhibitor SUGEN5416 (20 mg/kg body weight), followed by exposure to chronic hypoxia (10% O2) for 3 weeks and normoxia for 5 weeks (21% O2), as previously described(12). […] Right Ventricular (RV) Systolic Pressure was measured through right jugular vein catheterization, and RV hypertrophy (RVH) was assessed by the weight ratio of the RV to left ventricle and septum (LV+S). Murine and rat lung tissue was fixed in paraformaldehyde (PFA) for 48 hours and preserved in EtOH. Paraffin embedded lung slides were stained with a Movat pentachrome stain (Histo-Tec, Hayward, Calif.), where vessel loss and muscularization of pulmonary vessels was visualized by light microscopy. Fluorescent immunocytochemistry on lung sections was performed on deparaffinized (Histoclear II, National Diagnostics) tissue sections with primary antibodies for von-Willebrand factor (vWF) and alpha smooth muscle actin (αSMA) following antigen-retrieval. Human PAH lung tissue was stained for anti-BMPR2 (Ab130206, Abcam) and anti-FHIT (kind gift of Kay F. Huebner, Ohio State University). PFA-fixed paraffin-embedded heart tissue was stained with trichrome staining (Histo-Tec, Hayward, Calif.) to visualize fibrotic transformation. Sprague Dawley rats, were subcutaneously injected with 20 mg/kg SUGEN5416 once and housed in chronic hypoxia (10%, 3 weeks), followed by 5 weeks in normoxia as previously described(41). […] Hemodynamic assessment of the animals (echocardiography, right heart catheter) was performed before sacrifice and tissue collection. […] Experimental PH was induced in male Sprague Dawley rats by subcutaneous injection of 20 mg/kg body weight SU5416. […] FIG. 11F, Representative MOVAT lung histology, highlighting large pulmonary vessels."}, "[2]": {"settings": "5 mg/kg daily oral gavage for 3 weeks, vs vehicle"}, "[3]": {"settings": "5 mg/kg/day oral gavage for 3 weeks, qPCR"}}, "note": "“Also recorded” adds a separate entry of the source.", "data": [{"smiles": "Cn1cc(C2=C(c3cn(C4CCN(Cc5ccccn5)CC4)c4ccccc34)C(=O)NC2=O)c2ccccc21", "note": "[Enzastaurin, 3-(1-methyl-1H-indol-3-yl)-4-[1-[1-(pyridin-2-ylmethyl)piperidin-4-yl]-1H-indol-3-yl]-1H-pyrrole-2,5-dione]", "values": [{"measurement": "siFHIT-mediated increase in miR27a expression", "setting": "miR27a", "result": "inhibited"}, {"measurement": "Cardiac output", "setting": "[1]; 5 mg/kg daily oral gavage", "result": "improves"}, {"measurement": "Cardiac / RV fibrosis", "setting": "[1]; [2]", "result": "reverses; also recorded: potently reduced"}, {"measurement": "Full or partial remodeling / muscularization of small and large vessels", "setting": "[1]; [2]", "result": "substantially and significantly reversed; also recorded: potently reduced"}, {"measurement": "Loss of alveolar wall (AW) and alveolar duct (AD) pulmonary vessels", "setting": "[1]; [2]", "result": "substantially and significantly reversed"}, {"measurement": "Right ventricle hypertrophy (RVH)", "setting": "[1]; [2]", "result": "lower; also recorded: potently reduced"}, {"measurement": "Vascular occlusion", "setting": "[1]; [2]", "result": "reverses; also recorded: nearly entirely reversed; also recorded: significantly less evidence"}, {"measurement": "Right ventricle systolic pressure (RVSP)", "setting": "[1]; 5 mg/kg daily oral gavage for 3 weeks, vs vehicle treated controls with experimental PAH", "result": "lower"}, {"measurement": "Emphysematous changes (linear intercept analysis of MOVAT lung histology)", "setting": "[1]; 5 mg/kg daily oral gavage, vs untreated controls", "result": "significantly less evidence"}, {"measurement": "Reduction of RVSP", "setting": "[1]; 5 mg/kg/day oral gavage for 3 weeks", "result": "over 30 mmHg"}, {"measurement": "BMPR2 expression in whole lung", "setting": "[1]; [3]", "result": "increased"}, {"measurement": "FHIT expression in whole lung", "setting": "[1]; [3]", "result": "increased"}, {"measurement": "LVEF (%) by Echocardiography", "setting": "[1]; before and after 3 weeks of 5 mg/kg daily oral gavage", "result": "improvement"}, {"measurement": "SUGEN5416/Hypoxia/Normoxia-induced lung and RV damage", "setting": "[1]; low-dose Enzastaurin (5 mg/kg/day)", "result": "potently reversed"}]}]}
